Literature values as cited in patent publication US7601870B2, “Substituted aniline derivatives” (priority 2004, dated 2009).

What was measured:
[1] = system: animal models of ethanol withdrawal syndrome; settings: in vivo
[2] = system: electrically induced seizures, seizures induced chemically by pentylenetetrazole, picrotoxin and NMDA, DBA/2 mouse; settings: oral and intraperitoneal administration in rats and mice
[3] = system: amygdala kindling model of complex partial seizures; settings: in vivo
[4] = system: seizures in epileptic patients; settings: clinical trials
[5] = system: K(+) current in neuronal cells
[6] = system: animal models of neuropathic pain; settings: in vivo
[7] = system: kainic acid-induced status epilepticus; settings: rat
hippocampal kindling = settings: rat
[8] = system: animal models of anxiety-like behaviour; settings: in vivo

Row | SMILES | effect in ethanol withdrawal syndrome models [1] | anticonvulsant activity [2] | activity in amygdala kindling model [3] | incidence of seizures [4] | activation of K(+) current [5] | effect in neuropathic pain models [6] | limbic neurodegeneration and markers of apoptosis [7] | progression of hippocampal kindling (hippocampal kindling) | activity in anxiety-like behaviour models [8]
1 | NCC1(CC(=O)O)CCCCC1 [gabapentin] | very effective |  |  |  |  |  |  |  | 
2 | CCOC(=O)Nc1ccc(NCc2ccc(F)cc2)cc1N [Retigabine, N-(2-amino-4-(4-fluorobenzylamino)-phenyl) carbamic acid ethyl ester] |  | active | active | effectiveness in reducing the incidence of seizures | activate a K(+) current | beneficial | prevent limbic neurodegeneration and the expression of markers of apoptosis | delay the progression of hippocampal kindling | active
